For one data set, the system named is Staphylococcus aureus. Also noted: method as in PMID 30842436. As to conditions: cited from earlier work.
A further data set concerns human erythrocytes. Description: in vitro. It counts as cell-based. The settings on record: for IC10 haemolysis: human erythrocytes; for IC50: red cells of human. Put shortly: (§1)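 Washed heparinized erythrocytes (~5 × 10^8 RBC/mL in PBS) incubated 1 h at 37 °C with peptides in serial 1:1 dilutions (150 to 1.2 µM final). Haemoglobin release read at 405 nm in supernatant; % haemolysis relative to 1% Triton X-100 (100%) and PBS diluent (0%).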

A short description of data set [1]: in vitro. The format is cell-based, human. As to conditions: human. An outline of the steps: as §1
A further data set has as its system HaCaT cells. It counts as cell-based, human. As to conditions: 1 h. The procedure: (§2) An immortalised human keratinocyte (HaCaT) cell line (Gift from David Gram Naym at Bispebjerg Hospital, Denmark), a human liver cancer cell line (HepG2; ATCC HB-8065) and a human epithelial cervical cancer cell line (HeLa; ATCC CCL-2) were cultured to ∼90% confluence after 21–25 h of growth under standard conditions (5% CO2 at 37 °C). Cells were cultured in Dulbecco’s Modified Eagle’s Medium supplemented with 10% (v/v) fetal bovine serum (FBS). All culture media were supplemented with penicillin (100 IU/mL) and streptomycin (100 μg/mL). All cell media and supplements were obtained from Sigma-Aldrich (St. Louis, MO, United States). The 96-well plates were supplied by Corning Costar (Sigma-Aldrich, Brøndby, Denmark). Cell viability assessment was performed on cell monolayers grown to ∼90% confluence in 96-well plates by using the MTS/PMS assay as previously described. Briefly, the adhered cells were washed with PBS solution (37 °C) (ThermoFisher Scientific, Roskilde) and exposed for 1 h at 37 °C to 100 μL of peptides dissolved in the medium also used for culturing of the cell line (at concentrations in the range 0–1,000 μg/mL). The cells were subsequently washed twice with 37 °C PBS and then 100 μL of an MTS/PMS solution in media, consisting of 240 μg/mL MTS (Promega, Madison, WI, United States) and 2.4 mg/mL PMS (Promega, Madison, WI, United States), was added to the cells, which then were incubated for 1 h at 37 °C protected from light. A plate reader (SpectraMax i3X; Molecular devices, San Jose, CA) was used to measure the absorbance at 492 nm. The relative viability was calculated by using 0.2% (w/v) sodium dodecyl sulfate (SDS) as the positive control, while cells exposed to medium without test compound were used as the negative control.

The test system of a further data set is HepG2 cells. The format is cell-based, human. The settings on record: 1 h. The procedure: as §2
Data set [2] relates to Staphylococcus pseudintermedius. The settings on record: cited from earlier work; for S.p. MIC: Staphylococcus pseudintermedius, Table S5, in µM.
Data set [3] is described as follows: in vitro. The settings on record: bovine. The format is cell-based, bovine. Put shortly: as §1
Data set [4] can be described thus: in vitro. It counts as cell-based, rat (Sprague–Dawley). As to conditions: Sprague-Dawley, rat. An outline of the steps:
as §1

In the next data set the test system is rat erythrocytes. Description: in vitro. The format is cell-based, rat (Sprague–Dawley). As to conditions: for IC10 haemolysis: rat erythrocytes; for IC50: red cells of rat. Put shortly:
as §1

The next data set deals with canine erythrocytes. In words: in vitro. The format is cell-based, dog. The settings on record: for IC10 haemolysis: canine erythrocytes; for IC50: red cells of canine. An outline of the steps: as §1
A short description of data set [5]: in vitro. The settings on record: dog. The format is cell-based, dog. An outline of the steps: as §1
In the next data set the test system is Pseudomonas aeruginosa. Also noted: method as in PMID 30842436. As to conditions: cited from earlier work.
Data set [6] can be described thus: Dose-ranging intravenous toxicity study in rats. As to conditions: rat. It counts as in vivo, rat (WistarHan). How it is done: All animals were injected with a single dose of 0.5 mL (2 mL/kg body weight) and it was slowly administered over 2 min and 10 s. Shorter cationic tripeptides[4] and synthetic AMPs[72] have previously been evaluated employing the intravenous route. It was an interesting observation that the animals survived the systemic tail vein injection seemingly unaffected. This observation is in contrast to related synAMPs investigated as intravenous antibiotics which induced acute toxicity and paralysis at higher concentrations.

For another data set, the system named is HeLa cells. It counts as cell-based, human. The settings on record: 1 h. The procedure:
as §2

The conditions of data set [7]: at in vivo dosing concentrations.
Procedure: To further address the actual correlation of the in vitro observations to an in vivo situation, three compounds were selected for animal studies. […] Peptides where chosen to include compounds with ranging antibacterial activity, residue composition, hydrophobicity and in vitro mammalian toxicity, deliberately excluding compounds too hydrophobic and too toxic (50% > lysis at 150 µM in vitro against rats and human). […] All the compounds were tested at the same concentrations 0, 0.01 and 1.0 mg/kg rat.
The compounds were formulated in sterile PBS (tablets, Medicago, Sweden), sonicated and sterile filtered through a Millex-GV filter (0.22 µm pore size, Ø 13 mm, Merck) before use. […] Doses were 0 (vehicle control), 0.01 and 1.0 mg/kg rat).

Each structure is given as a SMILES string. ≈ marks a conversion by molar mass, not a printed value. Square brackets hold non-standard residues; d marks the D form. Peptide text beside a SMILES is read from it. N(1-naphthylmethyl)Gly = O=C(O)CNCc1cccc2ccccc12; Nphe = O=C(O)CNCc1ccccc1; NBuGly = CCCCNCC(=O)O Where only a bound is given, the exact number is not on record here.

Data on two compounds can be found in paper PMC7414031, “Correlation between hemolytic activity, cytotoxicity and systemic in vivo toxicity of synthetic antimicrobial peptides” (Scientific Reports, 2020).

A word on the IC50: it is the concentration that gives 50% inhibition. High values mean weaker potency in that assay, low ones greater potency in that assay. Regarding `CCCCN(CC(=O)N[C@@H](CCCCN)C(=O)N[C@@H](CCCCN)C(=O)N[C@@H](CCCCN)C(N)=O)C(=O)CN(Cc1cccc2ccccc12)C(=O)CN(Cc1ccccc1)C(=O)CNCc1cccc2ccccc12` [Compound 2, (N1-Nal)Gly-(N-Phe)Gly-(N1-Nal)Gly-(N-Bu)Gly-Lys-Lys-Lys] (H-[N(1-naphthylmethyl)Gly][Nphe][N(1-naphthylmethyl)Gly][NBuGly]KKK-NH2), the “MIC against Staphylococcus aureus” value with Staphylococcus aureus is given as 16 µg/mL (≈ 15.1 µM). The “Haemolytic activity (in words)” value in the data set with human erythrocytes is listed as “amongst the top five most haemolytic compounds”. Besides, the IC10 haemolysis in the data set on human erythrocytes was found to be 11.2 µM; in the data set on rat erythrocytes it was 20.3 µM; in the data set on canine erythrocytes, 12.8 µM. Further, the IC50 in the data set on human erythrocytes was determined as 40 µM; with HaCaT cells, 89 µM; in the data set with HepG2 cells, 355 µM; in the data set with rat erythrocytes, 35.1 µM; in the data set with canine erythrocytes, 32 µM. For the same compound, the hemolysis at 1 h, 150 µM in “in vitro [1]” was 78.1%; in the data set “in vitro [3]”, less than 8%; in “in vitro [4]”, 100%; in the data set “in vitro [5]” it was 100%. In data set [2], the “S.p. MIC” value is given as 7.6 µM. Moreover, the “MIC against Staphylococcus pseudintermedius” value in data set [2] was 8 µg/mL (≈ 7.57 µM). In addition, in the data set with Pseudomonas aeruginosa, the “MIC against Pseudomonas aeruginosa” value is given as 32 µg/mL (≈ 30.3 µM).

For the compound `CC(C)C[C@@H](NC(=O)[C@@H](Cc1ccc2ccccc2c1)NC(=O)[C@@H](Cc1ccccc1)NC(=O)[C@H](N)Cc1ccc2ccccc2c1)C(=O)N[C@@H](CCCCN)C(=O)N[C@@H](CCCCN)C(=O)N[C@@H](CCCCN)C(N)=O` [Compound 4, (2-Nal)Ala-Phe-(2-Nal)Ala-Leu-Lys-Lys-Lys] (HELM PEPTIDE1{[N[C@H](Cc1ccc2ccccc2c1)C(=O)[*:2]].[dF].[O=C([C@@H](Cc1ccc2ccccc2c1)N[*:1])[*:2]].[dL].K.K.K.[am]}$$$$V2.0), in data set [6] (i.v. tail vein, high dose (1 mg/mL), two animals, after initial 30 min recovery), the “Clinical signs of discomfort after injection” value was “less mobility and reactivity to stimuli”. Moreover, the “Release of haemoglobin in vivo” value in [6] (i.v., high dose, 3 h) is listed as “slightly elevated release of haemoglobin”. In data set [6] (i.v., high dose, 8 h), the “Adverse effects at 8 h after injection” value is recorded as “no adverse effects were observed”. The Bilirubin concentration entry in [6] (i.v., plasma 24 h) is given as “no elevated concentration was observed”. The “AST and ALT concentration” value in data set [6] (i.v., plasma 24 h, high dose for 4) is “slight increase of both AST and ALT”. The “MIC against Staphylococcus aureus” value in the data set on Staphylococcus aureus is 32 µg/mL (≈ 30.3 µM). Besides, the IC10 haemolysis in the data set on human erythrocytes, with rat erythrocytes and with canine erythrocytes was greater than 150 µM in each case. Further, the IC50 in the data set on human erythrocytes was greater than 150 µM; in the data set with HeLa cells, 783 µM; with HaCaT cells it was 433 µM; with rat erythrocytes, greater than 150 µM; in the data set with canine erythrocytes, greater than 150 µM. Also, the hemolysis at 1 h, 150 µM in the data set “in vitro [1]”, in “in vitro [3]”, in “in vitro [4]” and in “in vitro [5]” was less than 8% throughout. Further, the “S.p. MIC” value in [2] is given as 15.1 µM. Further, in [2], the “MIC against Staphylococcus pseudintermedius” value is given as 16 µg/mL (≈ 15.1 µM). Further, in [7], the “Solubility in PBS (in words)” value was “freely soluble”. For the same compound, in the data set on Pseudomonas aeruginosa, the “MIC against Pseudomonas aeruginosa” value was greater than 64 µg/mL.
